Where two headings read alike, the source gives them in different places.
Experiments:
[1] = Brain homogenate free fraction by equilibrium dialysis; assay type: in vitro ADME; details: mouse brain homogenate; read-out: Binding Mouse Brain fu, br
Description: (§1) log P: partition coefficient; lipophilicity measurement. log D: distribution co-efficient; lipophilicity measurement. TPSA: topological polar surface area. Turbidimetric solubility: Test compound solution prepared in DMSO diluted into aqueous buffer. Turbidimetry is used as the end-point by measuring absorbance at 620 nm. FaSSIF: simulated intestinal fluid in fasted state measured at pH 6.5. Hep Cl mouse: in vitro hepatocyte clearance in mouse cells. Hep Cl human: in vitro hepatocyte clearance in human cells. Plasma fu,p: The free fraction of a compound in plasma preparation determined by in vitro equilibrium dialysis. It is understood that only unbound (free) compound is capable of engaging with the target. Brain fu,br: The free fraction of a compound in brain homogenate preparation determined by in vitro equilibrium dialysis. It is understood that only unbound (free) compound is capable of engaging with the target. Clu: in vitro clearance. Clu as defined here is the scaled clearance, in turn calculated from the intrinsic clearance. The intrinsic clearance is the predicted clearance due to hepatic metabolic reactions, determined from incubation of a compound in a hepatocyte preparation. […] Cl in vivo clearance: Pharmacokinetic measurement of the volume of plasma (or any matrix) from which a substance is completely removed per unit time.

[2] = Plasma free fraction by equilibrium dialysis; assay type: in vitro ADME; details: mouse plasma; read-out: Binding Mouse Plasma fu, p
Description: as §1

Log D measurement = assay type: physicochemical; details: pH 7.4; read-out: Log D measured at pH 7.4
Description: as §1

Mouse plasma stability = assay type: in vitro ADME; details: read-out: Stability Mouse plasma t1/2
Cathepsin V = Cathepsin V (Homo sapiens, UniProt O60911); test: Cathepsin IC50, Cathepsin V; assay type: biochemical
Chain of Cathepsin V (O60911 114-334, species assumed): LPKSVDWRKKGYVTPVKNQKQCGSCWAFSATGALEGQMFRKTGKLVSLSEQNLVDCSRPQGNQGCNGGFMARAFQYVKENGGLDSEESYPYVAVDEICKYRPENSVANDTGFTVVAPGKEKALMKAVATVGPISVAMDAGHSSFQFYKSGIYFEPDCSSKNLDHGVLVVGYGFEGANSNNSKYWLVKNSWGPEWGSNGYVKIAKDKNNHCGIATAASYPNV

hERG potassium channel = molecular target: T1, hERG potassium channel (Homo sapiens, UniProt Q12809); test: hERG potassium channel in stably expressed CHO cells; assay type: cell-based; details: for IC50: 0.01 to 30 μM, n=3; for inhibition at 30 µM: human, CHO cells stably expressing hERG, read-out: inhibition of the hERG current amplitude
T1 construct: expressed in transfected cells
T1 sequence (Q12809 whole entry): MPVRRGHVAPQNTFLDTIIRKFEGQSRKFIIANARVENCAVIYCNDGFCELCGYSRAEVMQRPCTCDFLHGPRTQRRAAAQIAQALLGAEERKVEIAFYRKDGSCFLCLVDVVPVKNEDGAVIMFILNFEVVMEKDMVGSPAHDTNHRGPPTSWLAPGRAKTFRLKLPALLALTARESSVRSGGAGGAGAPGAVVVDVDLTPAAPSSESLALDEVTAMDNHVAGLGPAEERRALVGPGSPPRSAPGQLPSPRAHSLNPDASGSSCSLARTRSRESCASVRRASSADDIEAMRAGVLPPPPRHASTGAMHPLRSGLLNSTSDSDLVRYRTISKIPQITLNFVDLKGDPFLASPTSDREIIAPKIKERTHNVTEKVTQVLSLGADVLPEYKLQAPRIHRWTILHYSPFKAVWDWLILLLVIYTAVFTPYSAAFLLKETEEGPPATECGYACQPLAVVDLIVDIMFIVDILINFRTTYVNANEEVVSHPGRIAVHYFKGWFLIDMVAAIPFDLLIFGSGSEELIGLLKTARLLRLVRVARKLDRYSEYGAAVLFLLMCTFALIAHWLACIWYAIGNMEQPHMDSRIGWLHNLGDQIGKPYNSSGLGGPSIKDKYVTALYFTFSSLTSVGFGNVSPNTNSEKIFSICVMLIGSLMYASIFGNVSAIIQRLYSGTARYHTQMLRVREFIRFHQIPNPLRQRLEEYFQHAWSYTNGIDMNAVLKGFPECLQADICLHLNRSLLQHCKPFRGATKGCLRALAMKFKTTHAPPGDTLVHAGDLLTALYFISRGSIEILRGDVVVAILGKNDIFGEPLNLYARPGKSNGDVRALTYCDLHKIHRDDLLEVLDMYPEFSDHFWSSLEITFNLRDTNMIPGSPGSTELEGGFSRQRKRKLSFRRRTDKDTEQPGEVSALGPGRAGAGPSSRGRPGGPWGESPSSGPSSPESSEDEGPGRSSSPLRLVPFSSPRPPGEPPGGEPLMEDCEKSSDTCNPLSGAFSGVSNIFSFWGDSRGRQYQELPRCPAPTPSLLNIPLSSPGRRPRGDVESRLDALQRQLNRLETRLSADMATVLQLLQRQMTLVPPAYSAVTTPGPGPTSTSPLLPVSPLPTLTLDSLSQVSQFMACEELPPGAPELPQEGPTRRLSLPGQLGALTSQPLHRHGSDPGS
Protocol: The hERG predictor assay provides valuable information about the possible binding of test compounds to the potassium channel and potential QT prolongation on […]. Inhibition of the hERG current causes QT interval prolongation resulting in potentially fatal ventricular tachyarrhythmia (Torsades de Pointes). Typically, assay data may be generated from an automated patch-clamp assay platform.
Example 1 was evaluated for effects on the hERG potassium channel, in stably expressed CHO cells at concentrations between 0.01 and 30 μM.
Example 2 was evaluated for effects on the hERG potassium channel, in stably expressed CHO cells at concentrations between 0.01 and 30 μM.

PK mouse = assay type: in vivo; details: for Unbound plasma Cmax/TOM20-Ub cell potency: 10 mg/kg PO dose - mouse; for bioavailability: po, 10 mg/kg, read-out: PK mouse Oral F (%); for bioavailability / clearance: mouse
Description: as §1
MDR1-MDCK (Madin-Darby Canine Kidney cell monolayer) (in vitro) flux assay. Cell TE WB: USP30 endogenous cellular target engagement western blot (WB) assay. Assays the activity of compounds against USP30 in cells using an irreversible activity probe to monitor USP30 activity. TE ex vivo: USP30 kidney tissue target engagement assay. Kp u,u is the ratio of unbound drug in brain to unbound drug in plasma and may be indicative of potential for treating peripheral and/or CNS indications.

FaSSIF solubility = assay type: physicochemical; details: pH 6.5, simulated intestinal fluid in fasted state
Description: as §1

hepatocyte = test: Hepatocyte clearance human; assay type: in vitro ADME; details: human hepatocytes
Description: as §1

USP30 = molecular target: T2, USP30 (Homo sapiens, UniProt Q70CQ3); test: USP30 biochemical IC50 assay (fluorescence polarisation); details: for fold more potent against USP30 than Reference Example A / fold more potent against USP30 than Reference Example B / fold more potent against USP30 than Reference Example C / fold more potent against USP30 than Reference Example D: biochemical assay; for IC50: read-out: USP30 IC50
T2 construct: purchased Boston Biochem E582
T2 sequence (Q70CQ3 57-517 limits assumed): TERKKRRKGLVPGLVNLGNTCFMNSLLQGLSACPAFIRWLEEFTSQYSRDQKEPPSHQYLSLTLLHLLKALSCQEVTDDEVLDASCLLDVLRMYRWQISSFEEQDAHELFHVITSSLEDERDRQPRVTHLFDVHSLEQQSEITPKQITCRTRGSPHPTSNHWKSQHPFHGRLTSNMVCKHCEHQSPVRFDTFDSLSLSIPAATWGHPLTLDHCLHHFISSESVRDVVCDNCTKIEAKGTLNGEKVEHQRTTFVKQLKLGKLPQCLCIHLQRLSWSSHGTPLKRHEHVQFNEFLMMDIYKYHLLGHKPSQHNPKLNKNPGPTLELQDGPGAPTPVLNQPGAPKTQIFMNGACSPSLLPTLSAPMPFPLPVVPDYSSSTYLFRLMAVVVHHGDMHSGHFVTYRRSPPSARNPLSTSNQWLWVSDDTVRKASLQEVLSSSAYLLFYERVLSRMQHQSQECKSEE
Protocol: Dilution plates were prepared at 21 times the final concentration (2100 μM for a final concentration of 100 μM) in 50% DMSO in a 96-well polypropylene V-bottom plate (Greiner #651201). A typical 8-point dilution series would be 100, 30, 10, 3, 1, 0.3, 0.1, 0.03 μM final. Reactions were performed in duplicate in black 384 well plates (small volume, Greiner 784076) in a final reaction volume of 21 μl. Either 1 μl of 50% DMSO or diluted compound was added to the plate. USP30 (Boston Biochem #E582) was diluted in reaction buffer (40 mM Tris, pH 7.5, 0.005% Tween 20, 0.5 mg/ml BSA, 5 mM beta-mercaptoethanol) to achieve a final assay concentration of 4 nM, and 10 μl of diluted USP30 was added to the compound. Enzyme and compound were incubated for 30 min at room temp. Reactions were initiated by the addition of 50 nM of TAMRA labelled peptide linked to ubiquitin via an iso-peptide bond as fluorescence polarisation substrate. Reactions were read immediately after addition of substrate and following a 2-hour incubation at room temperature. Readings were performed on a Pherastar Plus (BMG Labtech). λ Excitation 540 nm; Emission 590 nm.

[3] = whole blood, 2 mg/kg iv, read-out: PK mouse Cl blood

C[C@@H]1C[C@@H](NC(=O)c2ncc(-c3cccc(OC(F)(F)F)c3)o2)CN1C#N [Example 2, N-((3R,5R)-1-Cyano-5-methylpyrrolidin-3-yl)-5-(3-(trifluoromethoxy)phenyl)oxazole-2-carboxamide] showed a fraction unbound [1] of 0.028, a fraction unbound [2] of 0.05 and a logD (Log D measurement) of 3.4. For the same compound, the half-life (Mouse plasma stability) was 7 h, the IC50 (Cathepsin V) was greater than 30 µM and the IC50 (hERG potassium channel) was 24.7 µM. For the same compound, the inhibition at 30 µM (hERG potassium channel) was 54.3%, the “Unbound plasma Cmax/TOM20-Ub cell potency” value (PK mouse) was 7-fold and the bioavailability (PK mouse; in vivo) was 36%. The clearance (PK mouse; [3]) was 58 mL/min/kg, the “FaSSIF (μM) measured at pH 6.5” value (FaSSIF solubility) was 25 μM and the “Hepatocyte Cl human scaled Clu” value (hepatocyte) was 11.2 mL/min/kg. The “fold more potent against USP30 than Reference Example A” value (USP30) was 14 fold, the “fold more potent against USP30 than Reference Example B” value (USP30) was 34 fold and the “fold more potent against USP30 than Reference Example C” value (USP30) was 62 fold. The “fold more potent against USP30 than Reference Example D” value (USP30) was 880 fold and the IC50 (USP30) was 0.005 µM.
COC[C@@H]1C[C@@H](NC(=O)c2ncc(-c3cccc(OC(F)(F)F)c3)o2)CN1C#N [Example 1, N-((3R,5S)-1-Cyano-5-(methoxymethyl)pyrrolidin-3-yl)-5-(3-(trifluoromethoxy)phenyl)oxazole-2-carboxamide] gave a fraction unbound [1] of 0.043, a fraction unbound [2] of 0.06 and a logD (Log D measurement) of 2.9. The half-life (Mouse plasma stability) was 11 h, the IC50 (Cathepsin V) was 132 µM and the IC50 (hERG potassium channel) was 34.3 µM. For the same compound, the inhibition at 30 µM (hERG potassium channel) was 44.3%, the Kp uu (PK mouse; 2 mg/kg IV dose - mouse, unbound brain to unbound plasma) was 0.21 and the “Unbound plasma Cmax/TOM20-Ub cell potency” value (PK mouse) was 25-fold. It also gave a bioavailability (PK mouse; plasma) of 59%, a clearance (PK mouse; plasma, IV, read-out: IV plasma clearance) of 20 mL/min/kg and a clearance (PK mouse; [3]) of 20 mL/min/kg. For the same compound, the “FaSSIF (μM) measured at pH 6.5” value (FaSSIF solubility) was 89 μM, the “Hepatocyte Cl human scaled Clu” value (hepatocyte) was 5.6 mL/min/kg and the “fold more potent against USP30 than Reference Example A” value (USP30) was 14 fold. For the same compound, the “fold more potent against USP30 than Reference Example B” value (USP30) was 34 fold, the “fold more potent against USP30 than Reference Example C” value (USP30) was 62 fold and the “fold more potent against USP30 than Reference Example D” value (USP30) was 880 fold. It also gave an IC50 (USP30) of 0.005 µM.

From US20230119013A1, “N-CYANOPYRROLIDINES WITH ACTIVITY AS USP30 INHIBITORS” (MISSION THERAPEUTICS LIMITED, priority 2020, published 2023)
